Measurements: ChEMBL document CHEMBL1201862, “PubChem BioAssay data set” (2004)
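Cultured in 96-well plates, cells were exposed to test compound for 48 hours across five concentrations. GI50: concentration for 50% inhibition of growth.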 The source made the active and inactive calls. Cut-off read from the data, not from the text of the source: active = GI50 up to about 1.1 µM and inactive = higher.

Tests used:
Test in all cases: inhibition of tumour cell growth, NCI panel, 48 h
[1] = tested on: MOLT-4
[2] = tested on: LOX IMVI
[3] = tested on: U-251
[4] = tested on: SNB-19
[5] = tested on: NCI-H522
[6] = tested on: HL-60
[7] = tested on: HCT-15
[8] = tested on: M19-MEL
[9] = tested on: SF-539
[10] = tested on: OVCAR-4
[11] = tested on: UACC-257
[12] = tested on: SK-MEL-28
[13] = tested on: UO-31
[14] = tested on: KM12
[15] = tested on: SK-MEL-2
[16] = tested on: SNB-75
[17] = tested on: HCT-116
[18] = tested on: A549
[19] = tested on: BT-549
[20] = tested on: MDA-MB-435

SMILES	GI50 [1]	GI50 [2]	GI50 [3]	GI50 [4]	GI50 [5]	GI50 [6]	GI50 [7] [µM]	GI50 [8]	GI50 [9]	GI50 [10]	GI50 [11]	GI50 [12]	GI50 [13]	GI50 [14]	GI50 [15]	GI50 [16]	GI50 [17]	GI50 [18]	GI50 [19]	GI50 [20]
CC1(c2cccc3ccccc23)OC(=O)c2ccccc21 (stereo unspecified)	15.1 µM (inactive)	19.3 µM (inactive)	20 µM (inactive)	30.1 µM (inactive)	25.2 µM (inactive)	13.4 µM (inactive)	18.6	21.3 µM (inactive)	14.6 µM (inactive)	27.7 µM (inactive)	22.2 µM (inactive)	27 µM (inactive)	26 µM (inactive)	25.1 µM (inactive)	21.3 µM (inactive)	10 µM (inactive)	16.9 µM (inactive)	16.7 µM (inactive)		
CC[C@@]1(O)C(=O)OCc2c1cc1n(c2=O)Cc2cc3cc4c(cc3nc2-1)OCO4	< 0.001 µM (active)	0.00135 µM (active)	< 0.001 µM (active)	0.00152 µM (active)	0.00133 µM (active)	0.00133 µM (active)	0.0181	0.00787 µM (active)	< 0.001 µM (active)	0.0507 µM (active)	0.054 µM (active)	0.0188 µM (active)	0.00116 µM (active)		0.0224 µM (active)	0.00148 µM (active)	0.00167 µM (active)	0.00144 µM (active)	0.0118 µM (active)	0.0149 µM (active)
O=c1c2c(nc3n1CCC3)sc1c(O)c(Br)ccc12	11.1 µM (inactive)	13 µM (inactive)	20.2 µM (inactive)	54.7 µM (inactive)	16 µM (inactive)	14.7 µM (inactive)	18.6	16.3 µM (inactive)	15.5 µM (inactive)	17.7 µM (inactive)	16.6 µM (inactive)	16.4 µM (inactive)	18.8 µM (inactive)	14.3 µM (inactive)	20.7 µM (inactive)	> 100 µM (inactive)	15.2 µM (inactive)	15.4 µM (inactive)		
CC(=O)Nc1ccc(C(=O)N2N=C(C)/C(=C/c3ccccc3O)C2=O)cc1	> 100 µM (inactive)	> 100 µM (inactive)		> 100 µM (inactive)	> 100 µM (inactive)	> 100 µM (inactive)	> 100	> 100 µM (inactive)	> 100 µM (inactive)	> 100 µM (inactive)	> 100 µM (inactive)	> 100 µM (inactive)	> 100 µM (inactive)	> 100 µM (inactive)	> 100 µM (inactive)	> 100 µM (inactive)	> 100 µM (inactive)	> 100 µM (inactive)		
Clc1ccc2c(NCCCCCCNc3ccnc4cc(Cl)ccc34)ccnc2c1	2.45 µM (inactive)	1.74 µM (inactive)	2.45 µM (inactive)	3.8 µM (inactive)	1.69 µM (inactive)	1.98 µM (inactive)	2.88	3.13 µM (inactive)	1.87 µM (inactive)	2.54 µM (inactive)	7.57 µM (inactive)	4.62 µM (inactive)	4.83 µM (inactive)	2.66 µM (inactive)	5.97 µM (inactive)	2.73 µM (inactive)	1.8 µM (inactive)	4.69 µM (inactive)	11.6 µM (inactive)	6.04 µM (inactive)
COC(=O)NC(=O)c1cn(C2CCCCC2)c(=O)[nH]c1=O	> 100 µM (inactive)	> 100 µM (inactive)	> 100 µM (inactive)	> 100 µM (inactive)	> 100 µM (inactive)	> 100 µM (inactive)	> 100	> 100 µM (inactive)	> 100 µM (inactive)	> 100 µM (inactive)	> 100 µM (inactive)	> 100 µM (inactive)	> 100 µM (inactive)	> 100 µM (inactive)	> 100 µM (inactive)	> 100 µM (inactive)	> 100 µM (inactive)	> 100 µM (inactive)		
CCOC(=O)c1oc2c(OC)cc(Cl)c3c2c1CCC3	> 100 µM (inactive)	> 100 µM (inactive)	45 µM (inactive)	31.5 µM (inactive)	29.2 µM (inactive)	> 100 µM (inactive)	> 100	> 100 µM (inactive)	> 100 µM (inactive)	38.6 µM (inactive)	> 100 µM (inactive)	58.3 µM (inactive)	28.6 µM (inactive)	> 100 µM (inactive)	> 100 µM (inactive)	26.2 µM (inactive)	44.3 µM (inactive)	59.8 µM (inactive)		
N/N=C(/Cc1nc2ccc(C(=O)c3ccccc3)cc2nc1O)C(=O)Nc1ccc([N+](=O)[O-])cc1[N+](=O)[O-]	> 10 µM (inactive)	> 10 µM (inactive)	> 10 µM (inactive)	> 100 µM (inactive)	> 10 µM (inactive)	> 10 µM (inactive)	> 10	> 10 µM (inactive)	> 100 µM (inactive)	27.3 µM (inactive)	> 100 µM (inactive)	> 10 µM (inactive)	68.2 µM (inactive)	> 100 µM (inactive)	> 10 µM (inactive)	> 10 µM (inactive)	> 10 µM (inactive)	> 10 µM (inactive)		
CCC1(O)C(=O)OCc2c1cc1n(c2=O)Cc2cc3cc4c(cc3nc2-1)OCO4 (stereo unspecified)	< 0.01 µM (active)	< 0.01 µM (active)	< 0.01 µM (active)	< 0.01 µM (active)	< 0.01 µM (active)	< 0.01 µM (active)	0.0306	< 0.01 µM (active)	0.0316 µM (active)	0.0551 µM (active)	0.0242 µM (active)	0.112 µM (active)	< 0.0111 µM (active)		0.127 µM (active)	< 0.01 µM (active)	< 0.01 µM (active)	< 0.01 µM (active)	0.0163 µM (active)	< 0.0131 µM (active)
C/C(=N\NC(N)=O)c1sc(-c2nc(C)c(/C(C)=N/NC(N)=O)s2)nc1C	> 100 µM (inactive)	> 100 µM (inactive)	99.3 µM (inactive)	> 100 µM (inactive)	70.5 µM (inactive)	40 µM (inactive)	21.9	> 100 µM (inactive)	> 100 µM (inactive)	> 100 µM (inactive)	> 100 µM (inactive)	> 100 µM (inactive)	> 100 µM (inactive)	> 100 µM (inactive)	> 100 µM (inactive)	> 100 µM (inactive)	> 10 µM (inactive)	> 100 µM (inactive)		
O=[N+]([O-])c1cc(I)cc(/C=N/NS(=O)(=O)c2ccc(Cl)cc2)c1O	19.5 µM (inactive)	19.8 µM (inactive)	18.7 µM (inactive)	29.9 µM (inactive)	16.9 µM (inactive)	27.7 µM (inactive)	20.4	25.2 µM (inactive)	23 µM (inactive)	30.5 µM (inactive)	24.4 µM (inactive)	27.7 µM (inactive)	20.1 µM (inactive)	18.2 µM (inactive)	23.5 µM (inactive)	27 µM (inactive)	21.2 µM (inactive)	35.8 µM (inactive)		
CCCCCCCCC(=O)NCCN(CCN)C(=O)CCCCCCCC	3.78 µM (inactive)	3.85 µM (inactive)	3.37 µM (inactive)	8.55 µM (inactive)	2.65 µM (inactive)	0.65 µM (active)	5.19	5.74 µM (inactive)	5.7 µM (inactive)	8.17 µM (inactive)	18.4 µM (inactive)	14.9 µM (inactive)	12.7 µM (inactive)	2.48 µM (inactive)	15.1 µM (inactive)	7 µM (inactive)	3.74 µM (inactive)	13.1 µM (inactive)	3.44 µM (inactive)	13.7 µM (inactive)
CN1C(=O)CC2(C)c3cc(O)ccc3N(C)C12 (stereo unspecified)	19.3 µM (inactive)	17.1 µM (inactive)	19.2 µM (inactive)	46.9 µM (inactive)	43.3 µM (inactive)	21.2 µM (inactive)	36	11.5 µM (inactive)	64.1 µM (inactive)	5.45 µM (inactive)	> 68.2 µM (inactive)	50.7 µM (inactive)	> 71.8 µM (inactive)	31.3 µM (inactive)	41.5 µM (inactive)	30.8 µM (inactive)	19.9 µM (inactive)	> 68.5 µM (inactive)	16.9 µM (inactive)	13.6 µM (inactive)
